Consider five compounds from US20240269308A1, “PRODRUGS OF TOPOISOMERASE I INHIBITOR FOR ADC CONJUGATIONS AND METHODS OF USE THEREOF” (priority 2022, published 2024).

The subject of data set [1] is NCI-N87 cells. Briefly: anti-Her2 viability assay, NCI-N87 cells (target positive). The format is cell-based. The following applies: NCI-N87 target positive cells, 6 days; for IC50: Homo sapiens, 144 h, read-out: N87 IC50. As to the method: (§1) The anti-Her2 viability assay protocol is following.
(§2) 0.1% BSA was added to the Opti-MEM reduced serum media [Gibco, cat #31985-070]. This assay media was used for the dilution of ADC and free drug.
(§3) Cells were seeded in their growth media into 96 well plates (Thermo #136101) one day prior to adding ADCs: 1000/well SKBR3 cells in 80 uL media (target positive cells), 1000/well NCI-N87 cells in 80 uL media (target positive cells), 1000/well Calu-3 in 80 uL media (target positive cells), and 800/well NCI-H1975 cells in 80ul media (target negative cells).
(§4) Serial dilutions of free drug in 100% DMSO (1:4 10 pts starting from 100 uM) were prepared. Serially diluted payload was transferred into Opti-Mem with 0.1% BSA (10 uL into 990 uL media). Serial dilutions of ADCs/isotype controls at 1:4 in Opti-Mem with 0.1% BSA (starting from 5×1000 nM) were prepared. 20ul assay media diluted ADC/isotype conjugates as well as free drug were transferred to above cells. The plates were incubated at 37° C., 5% CO2 for 6 days. Plates were developed by adding 100ul CellTiter Glo 2.0. RT 5-10 min. Plates were read with Envision plate reader. Data was analyzed using Prism. Only inner 60 well are used for the assay. The edge wells were filled with media to prevent dry out.

Data set [2] in a line: Mouse whole blood stability test. The format is in vitro ADME. As to the method: In vitro stability of Linker-Prodrug in mouse whole blood Scheme 15. Metabolism of LP1 (M2980) in whole blood.
Stock solution of test compound was provided in 100% DMSO. The stock solution for each compound was diluted into 500 μM with mixture of 50% acetonitrile, then diluted into mouse blood to achieve a final concentration of 1.0 μM. 1.0 μM of test compound in duplicate was incubated in blood at 37° C. Aliquots of 50 uL sample was collected at 0, 15, 30, 60, 120, 240, 480 min, and 24 hours. Reactions were terminated at various time points (0, 15, 30, 60, 120, 240, 480 min, 24 hours) by adding 200 μL of ice-cold acetonitrile containing internal standard with 1% formic acid and then ultrasound for 30 seconds. Plate was centrifuged (4000 rpm, 15 min). 50 μL of supernatants were transferred into a daughter plate containing 200 μL of H2O in each well. The samples were mixed well and analyzed with UPLC-MS/MS.
A Waters liquid chromatographic system was used. Detection was performed on AP14000 Q-Trap and AP15500 mass spectrometer equipped with TurbolonSpray (ESI) Interface (Applied Biosystems, Concord, Ontario, Canada). Analyst 1.5 and 1.6.2 software packages (Applied Biosystems) were used to control the LC-MS/MS system, as well as for data acquisition and processing.
Chromatographic separation was achieved on the Wates BEH C18 column (50*2.1 mm ID, 1.7 μm). The column temperature was maintained at ambient temperature (25° C.). The flow rate was maintained at 0.6 mL/min and the following mobile phases were used: water (0.1% formic acid, v/v) (phase A) and acetonitrile (0.1% formic acid, v/v) (phase B).
Test compounds (1.0 μM) were incubated in blood at 37° C. in duplicate. Aliquots of 50 uL sample was collected at 0, 15, 30, 60, 120, 240, 480 min, and 24 hours. Reactions were terminated at various time points (0, 15, 30, 60, 120, 240, 480 min, 24 hours by adding 200 μL of ice-cold acetonitrile containing internal standard with 1% formic acid, then ultrasound for 30 seconds. The plate was centrifuged (4000 rpm, 15 min). 50 μL of supernatants were transferred into a daughter plate containing 200 μL of water in each well. Samples were mixed well and analyzed with UPLC-MS/MS.
The % was calculated based on initial 1 uM as 100% and the standard concentration curve.

The subject of data set [3] is Calu-3. Nature of the data set: anti-Her2 viability assay, Calu-3 cells (target positive). In kind it is cell-based. The following applies: Calu-3 target positive cells, 6 days; for IC50: Homo sapiens, 144 h, read-out: Calu-3 IC50. As to the method: as §1, §2, §3, §4
The test system of data set [4] is SK-BR-3 cells. Briefly: SKBR3 cell-based anti-proliferation / viability assay (CellTiter-Glo). Also on record: species or system human. The following applies: for EC50: SK-BR-3, read-out: SKBR3 EC50. As to the method: as §1, §2, §3, §4
The cell line used in the anti-proliferation assays was SK-BR-3, a human breast, adenocarcinoma (pleural effusion) cell line; The cells were grown in McCoy's 5a Medium+10% FBS. To run the assay, the cells (80 μl, 1000 cells) were added to each well in a 96-well plate and incubated for 24 hours at 37° C. with CO2. Next, the cells were treated with test compounds (20 μl) at various concentrations in appropriate cell culture medium (total volume, 0.1 mL). The control wells contain cells and the medium but lack the test compounds. The plates were incubated for 144 hours at 37° C. with CO2. CTG reagent was then added to the wells (100 μl). After the plates were shaken for 10 min and then incubated for 10 min at room temperature, paste the clear bottom with white back seal and record luminescence with Envision. The inhibition % was calculated according to the following equation: inhibition %=[1-(assay-blank)/(control-blank)]×100.

In data set [5] the test system is JIMT-1. Nature of the data set: in vitro cell killing activity, JIMT-1 cells (CellTiter Glo viability). The format is cell-based. As to conditions: JIMT-1 cells; for IC50: Homo sapiens, read-out: JIMT-1 IC50. As to the method: as §4
Background: Cellular ATP, detected with luciferase, serves as a proxy for viable cell number.

Data set [6] in a line: in vitro. The following applies: human, plasma.
Data set [7] relates to NCI-H1975 cells. Nature of the data set: anti-Her2 viability assay, NCI-H1975 cells (target negative). In kind it is cell-based. As to conditions: NCI-H1975 target negative cells, 6 days; for IC50: Homo sapiens, 144 h, read-out: H1975 IC50. As to the method: as §1, §2, §3, §4
The nature of data set [8]: Human plasma stability.
Where [9] appears, read: SKBR3 target positive cells, 6 days.
Where [10] appears, read: whole blood, mouse blood, read-out: Mouse blood stability T1/2 (converted).

Read-outs that look alike come from different tables or passages of the source.

On to `CC[C@@]1(O)C(=O)OCc2c1cc1n(c2=O)Cc2c-1nc1cc(F)c(C)c3c1c2[C@@H](NC(=O)COCNC(=O)CN)CC3` [P1, 2-Amino-N-[({[(10S,23S)-10-ethyl-18-fluoro-10-hydroxy-19-methyl-5,9-dioxo-8-oxa-4,15-diazahexacyclo[14.7.1.0^2,14.0^4,13.0^6,11.0^20,24]tetracosa-1,6(11),12,14,16,18,20(24)-heptaen-23-yl]carbamoyl}methoxy)methyl]acetamide], for which the “Human plasma stability % Remaining at 24 h” value is recorded as 72.4%. Further, in data set [1], the IC50 – broadly, the concentration that inhibits the measured activity by half – came out at 9.25 nM and the “N87 % Kill” value amounted to 98.0%. In addition, in [2] (mouse, blood), the half-life at 1 μM is 0.63 h. Moreover, the “Mouse blood stability % Remaining at 24 h” value in data set [2] (mouse, blood, 1 μM) was 4.1%. In data set [3], the “Calu-3 % Kill” value is reported as 93.1% and the IC50 was 6.78 nM. For the same compound, in data set [4] (Homo sapiens, SK-BR-3, 144 h, SKBR3 target positive cells, 6 days, CellTiter Glo, read-out: SKBR3 IC50), the IC50 worked out at 5.81 nM. In data set [4] (Homo sapiens), the EC50 (usually the concentration that produces a half-maximal response) was 9.52 nM. In addition, in [4] (setting [9]), the “SKBR3 % Kill” value is listed as 96.0%. In data set [5], the IC50 came to 26.6 nM and the “JIMT-1 % Kill” value turned out to be 89.8%. This compound also had a half-life in data set [6] of 49.6 h. In data set [7], the IC50 was 23.9 nM and the “H1975 % Kill” value is on record as 96.4%.

Regarding `CC[C@@]1(O)C(=O)OCc2c1cc1n(c2=O)Cc2c-1nc1cc(F)c(C)c3c1c2[C@@H](NC(=O)COCNC(=O)[C@@H](N)CO)CC3` [P2, (2S)-2-amino-N-[({[(10S,23S)-10-ethyl-18-fluoro-10-hydroxy-19-methyl-5,9-dioxo-8-oxa-4,15-diazahexacyclo[14.7.1.0^2,14.0^4,13.0^6,11.0^20,24]tetracosa-1,6(11),12,14,16,18,20(24)-heptaen-23-yl]carbamoyl}methoxy)methyl]-3-hydroxypropanamide], the “Human plasma stability % Remaining at 24 h” value was 80.4%. Besides, in data set [1], the IC50 turned out to be 8.93 nM and the “N87 % Kill” value turned out to be 98.4%. The same compound had a half-life at 1 μM in [2] (mouse, blood) of 2.5 h. Besides, the “Mouse blood stability % Remaining at 24 h” value in [2] (mouse, blood, 1 μM) is listed as 34.1%. Besides, in data set [3], the “Calu-3 % Kill” value was determined as 93.2% and the concentration for half-maximal inhibition (IC50) is 5.68 nM. The EC50 in data set [4] (Homo sapiens) came to 5.89 nM. Also, the “SKBR3 % Kill” value in [4] (setting [9]) is listed as 97.0%. Also, in data set [5], the IC50 worked out at 23.8 nM and the “JIMT-1 % Kill” value is 92.7%. In addition, the half-life in [6] was 65.4 h. In [7], the IC50 worked out at 19.9 nM and the “H1975 % Kill” value was 98.0%.

`CC[C@@]1(O)C(=O)OCc2c1cc1n(c2=O)Cc2c-1nc1cc(F)c(C)c3c1c2[C@@H](NC(=O)COCNC(=O)[C@@H](N)CCC(N)=O)CC3` [P3, (2S)-2-amino-N-[({[(10S,23S)-10-ethyl-18-fluoro-10-hydroxy-19-methyl-5,9-dioxo-8-oxa-4,15-diazahexacyclo[14.7.1.0^2,14.0^4,13.0^6,11.0^20,24]tetracosa-1,6(11),12,14,16,18,20(24)-heptaen-23-yl]carbamoyl}methoxy)methyl]pentanediamide]: the “Human plasma stability % Remaining at 24 h” value was found to be 48.9%. In data set [1], the IC50 is 30.4 nM and the “N87 % Kill” value was 95.5%. The half-life at 1 μM in data set [2] (mouse, blood) is 1 h. For the same compound, the “Mouse blood stability % Remaining at 24 h” value in data set [2] (mouse, blood, 1 μM) was found to be 6.5%. Besides, in data set [3], the “Calu-3 % Kill” value is listed as 90.7% and the IC50 was found to be 15.9 nM. Moreover, in [4] (Homo sapiens), the EC50 amounted to 11.6 nM. The “SKBR3 % Kill” value in [4] (setting [9]) turned out to be 94.3%. Moreover, in data set [5], the concentration for half-maximal inhibition (IC50) turned out to be 88.6 nM and the “JIMT-1 % Kill” value is on record as 81.3%. Moreover, in data set [6], the half-life was 24.1 h. Besides, in data set [7], the IC50 amounted to 54.5 nM and the “H1975 % Kill” value came out at 88.5%.

`CC[C@@]1(O)C(=O)OCc2c1cc1n(c2=O)Cc2c-1nc1cc(F)c(C)c3c1c2[C@@H](NC(=O)COCNC(=O)[C@@H](N)CCC(=O)O)CC3` [P4, (4S)-4-amino-4-{[({[(10S,23S)-10-ethyl-18-fluoro-10-hydroxy-19-methyl-5,9-dioxo-8-oxa-4,15-diazahexacyclo[14.7.1.0^2,14.0^4,13.0^6,11.0^20,24]tetracosa-1,6(11),12,14,16,18,20(24)-heptaen-23-yl]carbamoyl}methoxy)methyl]carbamoyl}butanoic acid]: in data set [1], the IC50 was determined as 9.84 nM and the “N87 % Kill” value amounted to 97.7%. In data set [2] (mouse blood), the “Mouse blood stability % Remaining at 24 h” value came to 66.1%. In data set [2] (setting [10]), the half-life at 1 μM is 9.2 h. In [3], the “Calu-3 % Kill” value came to 93.7% and the IC50 amounted to 5.67 nM. Further, in data set [8], the half-life is 107 h and the “Human plasma stability % Remaining at 24 h” value worked out at 90.4%. For the same compound, the EC50 in data set [4] (Homo sapiens) came to 6.63 nM. Also, in data set [4] (setting [9]), the “SKBR3 % Kill” value worked out at 96.6%. In data set [5], the IC50 turned out to be 20.7 nM and the “JIMT-1 % Kill” value stood at 92.0%. For the same compound, in data set [7], the IC50 came out at 24.1 nM and the “H1975 % Kill” value was found to be 96.8%.

Regarding `CC[C@@]1(O)C(=O)OCc2c1cc1n(c2=O)Cc2c-1nc1cc(F)c(C)c3c1c2[C@@H](NC(=O)COCNC(=O)[C@@H](N)Cc1ccccc1)CC3` [P7, (2S)-2-amino-N-[({[(10S,23S)-10-ethyl-18-fluoro-10-hydroxy-19-methyl-5,9-dioxo-8-oxa-4,15-diazahexacyclo[14.7.1.0^2,14.0^4,13.0^6,11.0^20,24]tetracosa-1,6(11),12,14,16,18,20(24)-heptaen-23-yl]carbamoyl}methoxy)methyl]-3-phenylpropanamide], the IC50 in [1] is 4.41 nM. The “Mouse blood stability % Remaining at 24 h” value in [2] (mouse blood) was found to be 6.3%. In addition, in [2] (setting [10]), the half-life at 1 μM is 0.2 h. In data set [3], the “Calu-3 % Kill” value is 93.7% and the IC50 is 3.32 nM. For the same compound, in [8], the half-life was 24.4 h and the “Human plasma stability % Remaining at 24 h” value came out at 51.3%. In addition, the EC50 in data set [4] (Homo sapiens) was 1.98 nM. Moreover, the “SKBR3 % Kill” value in data set [4] (setting [9]) came out at 97.0%. For the same compound, in data set [5], the IC50 was 13.2 nM and the “JIMT-1 % Kill” value is recorded as 93.4%. Besides, in data set [7], the IC50 was 8.96 nM and the “H1975 % Kill” value is listed as 98.8%.
